Experimental data reported in the supplement of paper PMC10307832.

Tests used:
Experiment in all cases: relative viability (nuclei count vs DMSO), 5 days (fraction); higher = more cells survive
Bexarotene + Navitoclax = compound: C=C(c1ccc(C(=O)O)cc1)c1cc2c(cc1C)C(C)(C)CCC2(C)C [Bexarotene] + CC1(C)CCC(c2ccc(Cl)cc2)=C(CN2CCN(c3ccc(C(=O)NS(=O)(=O)c4ccc(N[C@H](CCN5CCOCC5)CSc5ccccc5)c(S(=O)(=O)C(F)(F)F)c4)cc3)CC2)C1 [Navitoclax] (partner 0.5 µM)
How it was run: (§1)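 Relative viability is defined as nuclei in treated wells over nuclei in vehicle wells. Duplicate plates were run and medians reported. Lung cancer cell lines in 1536-well plates were dosed by pin tool one day after seeding, with one drug or with a fixed anchor-drug dose plus five library-drug doses (not always all listed) in √10 steps, and nuclei were counted after 5 days.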

Bexarotene + Dasatinib = compound: C=C(c1ccc(C(=O)O)cc1)c1cc2c(cc1C)C(C)(C)CCC2(C)C [Bexarotene] + Cc1nc(Nc2ncc(C(=O)Nc3c(C)cccc3Cl)s2)cc(N2CCN(CCO)CC2)n1 [Dasatinib] (partner 0.075 µM)
How it was run: as §1

Bexarotene + Crizotinib = compound: C=C(c1ccc(C(=O)O)cc1)c1cc2c(cc1C)C(C)(C)CCC2(C)C [Bexarotene] + C[C@@H](Oc1cc(-c2cnn(C3CCNCC3)c2)cnc1N)c1c(Cl)ccc(F)c1Cl [Crizotinib] (partner 1 µM)
How it was run: as §1

Bexarotene + Vorinostat = compound: C=C(c1ccc(C(=O)O)cc1)c1cc2c(cc1C)C(C)(C)CCC2(C)C [Bexarotene] + O=C(CCCCCCC(=O)Nc1ccccc1)NO [Vorinostat] (partner 1 µM)
How it was run: as §1

Cell Line	relative viability (Bexarotene + Navitoclax; first compound 0.08 µM)	relative viability (Bexarotene + Navitoclax; first compound 0.253 µM)	relative viability (Bexarotene + Navitoclax; first compound 0.8 µM)	relative viability (Bexarotene + Navitoclax; first compound 2.53 µM)	relative viability (Bexarotene + Navitoclax; first compound 8 µM)	relative viability (Bexarotene + Dasatinib; first compound 0.08 µM)	relative viability (Bexarotene + Dasatinib; first compound 0.253 µM)	relative viability (Bexarotene + Dasatinib; first compound 0.8 µM)	relative viability (Bexarotene + Dasatinib; first compound 2.53 µM)	relative viability (Bexarotene + Dasatinib; first compound 8 µM)	relative viability (Bexarotene + Crizotinib; first compound 0.08 µM)	relative viability (Bexarotene + Crizotinib; first compound 0.253 µM)	relative viability (Bexarotene + Crizotinib; first compound 0.8 µM)	relative viability (Bexarotene + Crizotinib; first compound 2.53 µM)	relative viability (Bexarotene + Crizotinib; first compound 8 µM)	relative viability (Bexarotene + Vorinostat; first compound 0.08 µM)	relative viability (Bexarotene + Vorinostat; first compound 0.253 µM)	relative viability (Bexarotene + Vorinostat; first compound 0.8 µM)	relative viability (Bexarotene + Vorinostat; first compound 2.53 µM)	relative viability (Bexarotene + Vorinostat; first compound 8 µM)
H3255	0.528	0.473	0.534	0.5	0.543	0.406	0.311	0.385	0.338	0.334	0.882	0.92	0.958	0.989	0.959	0.759	0.913	0.843	0.787	0.869
EPLC-272H	1.16	1.09	1.01	0.974	0.96	0.388	0.312	0.369	0.352	0.383	0.877	0.971	0.854	0.853	0.772	0.398	0.671	0.492	0.681	0.484
PC-3 [JPC-3]	0.86	0.904	0.754	0.797	0.693	0.77	0.928	0.833	0.974	0.867	1.02	1.02	0.904	0.965	0.857	0.963	0.639	0.737	0.417	0.599
NCI-H1793	0.351	0.556	0.332	0.35	0.464	0.367	0.366	0.409	0.406	0.399	–	–	–	–	–	0.666	0.784	0.611	0.604	0.601
EKVX	0.906	0.94	0.908	0.878	0.966	0.515	0.512	0.567	0.523	0.463	0.83	1.06	0.819	1.12	0.701	0.69	0.811	0.709	0.819	0.542
ChaGo-K-1	0.98	0.987	1.07	–	0.991	0.568	0.604	0.638	0.661	0.593	1.19	1.23	1.15	–	1.15	0.848	0.886	0.844	0.818	0.918
NCI-H23	1.01	0.96	0.853	0.923	0.729	0.944	0.594	0.635	0.884	0.691	0.534	0.561	0.514	0.647	0.529	0.715	0.782	0.599	0.453	0.541
EMC-BAC-2	1.26	1.27	1.09	1.31	1.15	0.328	0.316	0.294	0.309	0.334	0.742	0.806	0.633	0.706	0.667	0.628	0.462	0.537	–	0.522
LOU-NH91	0.608	0.637	0.502	0.597	0.512	0.584	0.613	0.467	0.521	0.502	0.767	0.73	0.696	0.686	0.639	0.973	0.956	0.933	0.836	0.849
LU99A	0.931	0.828	0.826	0.895	0.89	0.748	0.703	0.711	0.613	0.699	0.495	0.634	0.573	0.524	0.542	0.597	0.539	0.551	0.527	0.612
NCI-H1395	1.19	1.11	1.05	1.07	1.1	0.448	0.385	0.367	0.407	0.419	–	–	–	–	–	0.963	0.775	0.723	0.49	0.73
NCI-H460	1.31	1.18	1.05	0.993	0.918	0.615	0.531	0.565	0.512	0.505	0.91	1.1	0.908	0.845	0.766	0.812	0.752	0.644	0.716	0.67
201T	1.22	1.21	1.23	1.2	1.12	0.584	0.569	0.54	0.602	0.565	0.994	0.882	0.974	0.958	0.982	1.03	0.997	0.894	0.888	0.802
NCI-H1944	1.03	0.97	0.945	0.972	0.986	0.24	0.216	0.222	0.221	0.293	1.3	1.17	1.18	1.26	1.02	0.74	0.683	0.669	0.675	0.532
NCI-H2405	0.999	0.814	0.753	0.926	0.786	0.219	0.247	0.136	0.144	0.188	0.945	0.853	0.665	0.806	0.839	1.06	1.01	0.839	0.755	0.951
NCI-H1703	1.08	1.14	0.915	0.913	0.692	–	–	–	–	–	0.414	0.601	0.57	0.421	0.522	–	–	–	–	–
NCI-H1755	1.04	1.05	1.02	0.993	0.993	0.436	0.395	0.366	0.403	0.361	0.85	1.09	0.971	0.848	0.802	0.85	0.991	0.815	0.652	0.662
NCI-H2087	1.11	0.944	1.1	0.848	0.759	1.02	0.919	0.703	0.843	0.903	0.854	1.14	0.716	0.827	0.867	1.07	0.765	0.642	1.09	0.841
NCI-H2228	0.822	0.71	0.455	0.931	0.721	0.56	0.635	0.48	0.343	0.509	0.512	0.462	0.374	0.356	0.458	0.784	0.691	0.787	0.665	0.887

Cell Line	relative viability (Bexarotene + Navitoclax; first compound 0.08 µM)	relative viability (Bexarotene + Navitoclax; first compound 0.253 µM)	relative viability (Bexarotene + Navitoclax; first compound 0.8 µM)	relative viability (Bexarotene + Navitoclax; first compound 2.53 µM)	relative viability (Bexarotene + Navitoclax; first compound 8 µM)	relative viability (Bexarotene + Dasatinib; first compound 0.08 µM)	relative viability (Bexarotene + Dasatinib; first compound 0.253 µM)	relative viability (Bexarotene + Dasatinib; first compound 0.8 µM)	relative viability (Bexarotene + Dasatinib; first compound 2.53 µM)	relative viability (Bexarotene + Dasatinib; first compound 8 µM)	relative viability (Bexarotene + Crizotinib; first compound 0.08 µM)	relative viability (Bexarotene + Crizotinib; first compound 0.253 µM)	relative viability (Bexarotene + Crizotinib; first compound 0.8 µM)	relative viability (Bexarotene + Crizotinib; first compound 2.53 µM)	relative viability (Bexarotene + Crizotinib; first compound 8 µM)	relative viability (Bexarotene + Vorinostat; first compound 0.08 µM)	relative viability (Bexarotene + Vorinostat; first compound 0.253 µM)	relative viability (Bexarotene + Vorinostat; first compound 0.8 µM)	relative viability (Bexarotene + Vorinostat; first compound 2.53 µM)	relative viability (Bexarotene + Vorinostat; first compound 8 µM)
NCI-H727	0.467	0.38	0.452	0.354	0.405	0.405	0.311	0.388	0.316	0.37	0.856	0.912	0.87	0.677	0.708	1.46	1.16	1.26	1.18	0.971
NCI-H650	–	–	–	–	–	0.475	0.562	0.441	0.408	0.412	0.749	0.613	0.739	0.615	0.6	0.542	0.497	0.429	0.457	0.467
NCI-H520	1.14	1.11	1.03	1.14	0.993	0.223	0.211	0.204	0.215	0.187	0.989	0.735	0.649	0.775	0.659	0.781	0.695	0.778	0.775	0.716
EBC-1	0.43	0.401	0.333	0.344	0.369	–	–	–	–	–	0.196	0.212	0.237	0.217	0.192	–	–	–	–	–
NCI-H661	–	–	–	–	–	1.14	0.89	0.837	0.838	0.801	0.866	1.13	1.02	0.96	1.04	0.876	0.814	0.878	0.861	0.808
NCI-H1299	1.05	1.07	1.06	1.09	1.04	–	–	–	–	–	1	1.03	1.03	0.964	1.02	–	–	–	–	–
LK-2	1.1	0.782	0.935	0.944	0.802	0.314	0.474	0.39	–	0.465	0.309	0.213	0.206	0.221	0.247	0.337	0.278	0.342	0.277	0.332
NCI-H1993	1.11	1.03	0.878	0.924	0.841	0.655	0.573	0.528	0.617	0.613	0.926	0.751	0.71	0.831	0.746	0.851	0.691	0.783	0.716	0.672
NCI-H838	1.13	1.33	1.23	1.32	1.22	0.299	0.301	0.339	0.346	0.381	0.929	0.884	0.891	0.843	0.866	0.764	0.767	0.742	0.585	0.693
SW 900	–	–	–	–	–	0.703	0.55	0.505	0.544	0.772	–	–	–	–	–	0.543	0.473	0.433	0.453	0.471
LCLC-103H	–	–	–	–	–	0.489	0.567	0.419	0.525	0.49	1.15	1.21	1.03	0.999	1.12	0.891	0.976	0.691	0.771	0.875
NCI-H522	–	–	–	–	–	0.939	0.874	0.957	0.842	0.93	–	–	–	–	–	0.961	0.862	0.977	0.94	1.01
IA-LM	0.6	0.785	0.724	0.603	0.664	–	–	–	–	–	–	1.03	0.676	0.678	0.62	0.79	0.817	0.756	0.718	0.7
NCI-H1563	–	–	–	–	–	0.489	0.423	0.449	0.469	0.487	0.842	0.843	0.916	0.876	0.81	–	–	–	–	–
HCC-44	0.987	1.06	0.969	1.05	0.871	–	–	–	–	–	0.766	0.82	0.824	0.782	0.776	1.09	1.05	0.971	1.04	1.16
NCI-H358	–	–	–	–	–	0.224	0.33	0.251	0.234	0.259	0.541	0.603	0.497	0.66	0.49	0.7	0.798	0.667	0.934	0.703
ABC-1	–	–	–	–	–	0.521	0.715	0.635	0.445	0.659	1.02	0.893	0.853	1.3	0.829	1.07	0.883	0.742	–	1.03
NCI-H2342	–	–	–	–	–	0.331	0.301	0.256	0.33	0.419	–	–	–	–	–	0.758	0.647	0.666	0.571	0.731
NCI-H1792	0.588	0.515	0.489	0.297	0.579	0.82	0.769	0.764	0.786	0.689	0.859	0.947	0.874	0.737	0.831	–	–	–	–	–
